Experimental data as given in PMC6159918 (Peptides, 2018).
Where two headings read alike, the source gives them in different places.

How the values were obtained:
[1] = biological target: T1, human BRS-3-receptor (Homo sapiens, UniProt P32247); assay: p42/44 MAPK phosphorylation; format: cell-based
T1 sequence (P32247 1-399): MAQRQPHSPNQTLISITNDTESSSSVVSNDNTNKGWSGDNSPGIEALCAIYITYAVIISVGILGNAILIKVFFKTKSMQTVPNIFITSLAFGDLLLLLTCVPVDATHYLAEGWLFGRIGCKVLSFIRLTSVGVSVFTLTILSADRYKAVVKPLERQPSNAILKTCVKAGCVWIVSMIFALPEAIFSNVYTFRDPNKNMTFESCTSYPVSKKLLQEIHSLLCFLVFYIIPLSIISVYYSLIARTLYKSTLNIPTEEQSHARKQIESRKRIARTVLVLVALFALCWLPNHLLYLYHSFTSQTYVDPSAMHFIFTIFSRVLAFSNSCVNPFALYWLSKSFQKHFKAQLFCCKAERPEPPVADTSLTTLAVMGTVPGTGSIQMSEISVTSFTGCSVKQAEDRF

[2] = biological target: T1, human BRS-3-receptor; assay: [3H]-inositol phosphates; format: cell-based; details: for EC50: EC50, release of [3H]IP; for [3H]IP (Exp/control) / [3H]IP (DPM): MK-5046 10 nM
[3] = biological target: T1, human BRS-3-receptor; assay: Cytosolic Ca2+; format: cell-based; details: MK-5046 10 nM
[4] = system: BRS-3/Balb cells; details: 24 h serum-free, Balb-3T3 BRS-3-transfected

O[C@@](Cc1nc(CC2(C(F)(F)F)CC2)c[nH]1)(c1ccc(-n2cccn2)cc1)C(F)(F)F [MK-5046, (2S)-1,1,1-trifluoro-2-[4-(1H-pyrazol-1-yl)phenyl]-3-(4-[[1-(trifluoromethyl)cyclopropyl]methyl]-1H-imidazol-2-yl)propan-2-ol]
P-p42/44 (Exp/control) ([1]; MK-5046 10 nM, 3 min, NCI-N417 (SCLC)): 1.64 ± 0.25 Exp/control | decrease in p42/44-phosphorylation at supramaximal concentrations ([1]; NCI-H82-cells, p < 0.002): 50 ± 7% | decrease in p42/44-phosphorylation at supramaximal concentrations ([1]; NCI-H727-cells, p < 0.0001): 49 ± 9% | decrease in p42/44-phosphorylation at supramaximal concentrations ([1]; NCI-N417, p < 0.0001): 29 ± 6% | dose-response curve shape, p42/44 phosphorylation ([1]; all the cells (NCI-H727, NCI-H720, NCI-H69, NCI-H82, NCI-N417) except BRS-3/H1299): biphasic | Emax at 1 µM ([1]; read-out: maximal stimulation of p42/44-MAPK phosphorylation): 96 ± 7% | greatest [3H]IP-increase in IP-production ([2]; BRS-3/H1299-cells): 8 fold | EC50 ([2]; BRS-3/H1299 cells): 0.37 ± 0.04 nM | EC50 ([2]; NCI-H69 cells): 3.29 ± 0.54 nM | EC50 ([2]; NCI-H720 cells): 0.14 ± 0.05 nM | decrease in [3H]IP-release at supramaximal concentrations ([2]; H720 cells, p < 0.05): 28% | [3H]IP (Exp/control) ([2]; Balb-3T3 BRS-3 transfected): 7.50 ± 0.68 Exp/control | [3H]IP (DPM) ([2]; Balb-3T3 BRS-3 transfected, control 2487 ± 185): 18657 ± 1698 DPM | [3H]IP (Exp/control) ([2]; NCI-H69 (SCLC)): 3.38 ± 0.17 Exp/control | [3H]IP (DPM) ([2]; NCI-H69 (SCLC), control 177 ± 27): 597 ± 29 DPM | [3H]IP (Exp/control) ([2]; NCI-H82 (SCLC)): 2.09 ± 0.33 Exp/control | [3H]IP (Exp/control) ([2]; NCI-H358 (NSCLC)): 1.50 ± 0.15 Exp/control | [3H]IP (Exp/control) ([2]; NCI-H460 (NSCLC)): 1.63 ± 0.18 Exp/control | [3H]IP (Exp/control) ([2]; NCI-H510 (SCLC)): 1.12 ± 0.05 Exp/control | [3H]IP (Exp/control) ([2]; NCI-H520 (NSCLC)): 1.84 ± 0.36 Exp/control | [3H]IP (Exp/control) ([2]; NCI-H720 (carcinoid)): 1.64 ± 0.22 Exp/control | [3H]IP (Exp/control) ([2]; NCI-H727 (carcinoid)): 2.59 ± 0.22 Exp/control | [3H]IP (DPM) ([2]; NCI-H727 (carcinoid), control 143 ± 21): 371 ± 32 DPM | [3H]IP (Exp/control) ([2]; NCI-H1299 BRS-3 transfected): 7.63 ± 0.77 Exp/control | [3H]IP (Exp/control) ([2]; NCI-N417 (SCLC)): 4.31 ± 1.03 Exp/control | [3H]IP (DPM) ([2]; NCI-N417 (SCLC), control 660 ± 87): 2850 ± 571 DPM | maximal stimulated [3H]IP value ([2]; NCI-H69 cells, 100 nM MK-5046, control 177 ± 27 dpm): 834 ± 66 dpm | maximal stimulated [3H]IP value ([2]; NCI-H720 cells, 10 nM MK-5046, control 268 ± 23 dpm): 375 ± 31 dpm | maximal stimulated [3H]IP value ([2]; hBRS-3-NCI-H1299 cells, 100 nM MK-5046, control 1169 ± 88 dpm): 10,144 ± 1310 dpm | Ca2+ release (% over basal) ([3]; Balb-3T3 BRS-3 transfected): 7.43 ± 1.22 % over basal | Ca2+ release (% over basal) ([3]; NCI-H69 (SCLC)): 3.09 ± 0.67 % over basal | Ca2+ release (% over basal) ([3]; NCI-H82 (SCLC)): 9.00 ± 1.11 % over basal | Ca2+ release (% over basal) ([3]; NCI-H358 (NSCLC)): 1.65 ± 0.43 % over basal | Ca2+ release (% over basal) ([3]; NCI-H460 (NSCLC)): 5.77 ± 1.41 % over basal | Ca2+ release (% over basal) ([3]; NCI-H510 (SCLC)): 2.94 ± 0.52 % over basal | Ca2+ release (% over basal) ([3]; NCI-H520 (NSCLC)): 2.60 ± 0.40 % over basal | Ca2+ release (% over basal) ([3]; NCI-H720 (carcinoid)): 2.40 ± 0.28 % over basal | Ca2+ release (% over basal) ([3]; NCI-H727 (carcinoid)): 6.26 ± 1.43 % over basal | Ca2+ release (% over basal) ([3]; NCI-H1299 BRS-3 transfected): 8.04 ± 0.55 % over basal | Ca2+ release (% over basal) ([3]; NCI-N417 (SCLC)): 4.40 ± 0.62 % over basal | [3H]-Thymidine Incorporation (Exp/control) ([4]; MK-5046 10 nM): 1.00 ± 0.04 Exp/control | [3H]-Thymidine Incorporation (Exp/control) ([4]; MK-5046 1 μM): 1.24 ± 0.07 Exp/control
